row,SMILES,melting point [°C]
1,O=C(O)Cc1cc(Cl)ccc1OCc1ccccc1,76 to 77.5
2,CC(C)(C)c1cc(C#Cc2ccc(NS(C)(=O)=O)cc2Cl)cc(N2CCC(=O)NC2=O)c1,278 to 280
3,CC(C)=CCc1cc(-c2oc3c(CC=C(C)C)c(O)cc(O)c3c(=O)c2O)ccc1O,145 to 146
4,Nc1cc([N+](=O)[O-])ccc1OC(F)(F)F,90 to 91
5,CC(C)C(NC(=O)N(C)Cc1ccccn1)C(=O)N(C(=O)C(NC(=O)N(C)Cc1nccs1)C(C)C)C(Cc1ccccc1)CC(O)CCc1ccccc1 (stereo not given),156 to 158
6,NC(=O)CN(CCCc1ccc(F)cc1)C1CCC(c2ccc3[nH]c(=O)oc3c2)CC1 (stereo not given),266 to 270
7,CC(C)N(CCn1c(-c2ccc(O)cc2)cc2c1CCCC2)C(C)C,112 to 114
8,N#CC1(c2ccc(Cl)c(Cl)c2)CC(Cl)=C(Cl)N1CCO (stereo not given),143 to 145
9,COC=C(C(=O)OC)c1scnc1COc1ccccc1,133
10,CCC1(CC)c2cc(I)ccc2-c2ccc(C=O)cc21,138 to 140
11,COc1ccc(CC(=O)NCCc2cccc3c2OCO3)cc1OC,124
12,CNC(=O)N1CC(Oc2ccccn2)C1,165 to 168
13,CNc1c(F)cc2c(=O)c(C(=O)O)cn(-c3cc(N)c(F)cc3Br)c2c1Cl,> 280
14,CCCn1c(=O)c2[nH]c(/C=C/c3cc(OC)c(OCc4ccccc4)c(OC)c3)nc2n(CCC)c1=O,221
15,O=C(O)CCCCCNC(=O)CCC(=O)Nc1cccc2ccccc12,229 to 231
16,CC1(C)CC(NCCNCCNC2CC(C)(C)N(O)C(C)(C)C2)CC(C)(C)N1O,118 to 124
17,Cc1ccccc1C1CC(=O)c2c(C(F)(F)F)coc2C1 (stereo not given),105 to 107
18,c1ccc(-n2nnc3ccc(Cn4ccnc4)cc32)cc1,110
19,CN(C)C=Cc1cc(-n2cncn2)ncc1[N+](=O)[O-],225 to 228
20,CCOC(=O)c1cnn(-c2ccc(O)c(C#N)c2)c1,233 to 234
21,CCCCOc1cc(/C=C(\OCC)C(=O)O)ccc1OCCc1ccc(NS(C)(=O)=O)cc1,141
22,COC(=O)C1(C)Oc2ccc(Cl)cc2C(C)(C)O1 (stereo not given),89
23,O=c1oc2c(I)cc(I)cc2s1,155 to 157
24,CCOCc1c(-c2ccccc2)oc2c(C(=O)NCCCN3CCN(c4ccccc4OC)CC3)cccc2c1=O,129 to 133
25,COc1cccc(C2(Cl)C(C)(C)C2(C)C)c1OC,123 to 125

row,SMILES,melting point [°C]
1,COC(=O)c1cccc2c1Oc1c(cccc1C(=O)OC)N2,145 to 146
2,CCOC(=O)C(=O)Nc1cc(C(F)(F)F)c(Cl)cc1[N+](=O)[O-],96.5 to 97.5
3,O=C(NO)c1ccc(C(=O)NOCc2ccc3ccccc3c2)cc1,220 to 222
4,Cc1cc(C)nc(NC(=O)N(C)C)c1,105 to 108
5,CC(CC=Cc1ccccc1)C1CC=C2C3=C(CCC21C)C1(C)CCC(O)C(C)(C)C1CC3 (stereo not given),127
6,COc1c(CN2CCC(=O)C(C(c3ccccc3)c3ccccc3)C2)cc(C(C)(C)C)cc1C(C)(C)C (stereo not given),136 to 138
7,FC(F)(F)c1[nH]c(-c2cccc(Cl)c2)nc1Br,137 to 144
8,CSCC(=O)N(C)C(C)=Nc1cn(-c2cccnc2)nc1C,54 to 57
9,COc1cc(C2C3=C(COC3=O)Nc3c2cc(OC)c(OC)c3OC)ccc1O (stereo not given),290 to 291
10,O=C(Nc1ccc(-n2nc(C(F)(F)F)cc2C2CC2)c(F)c1)c1ccc2nn[nH]c2c1,235 to 237
11,CCCCCCNC(=S)NC(=O)c1ccc(C#N)cc1,95 to 96
12,O=C(N1CCN(c2ccccc2)CC1)N1CC(Oc2ccc(Br)cc2)C1,160 to 161
13,CCN(CC)CC1CCCCN1CC#CCN1c2ccccc2C(=O)Nc2cccnc21 (stereo not given),132 to 134
14,CC(C)[C@H](NC(=O)OCc1ccccc1)C(=O)NCc1ccccc1,174
15,CN(C)c1nc(NCc2ccco2)nc(Nc2cccc(C(F)(F)F)c2)n1,81 to 83
16,O=C(O)c1ccc(OC(F)(F)F)cc1Cl,90.6 to 91.2
17,CCCCc1nc2cccc(C(=O)OC)c2[nH]1,85
18,O=c1c2ccccc2cc(N2CCCCC2)c2ccccc12,103 to 105
19,Cn1cc(C(=O)NCc2ccc(Cl)cc2)c(=O)c2cc(CC3CCOCC3)cc(I)c21,175 to 177
20,COC(=O)[C@H](Cc1ccc([N+](=O)[O-])cc1)NC(=O)c1c(C)cccc1Cl,120 to 123
21,CN(C)CCNC1=C(Br)C(=O)c2sc(C(=O)N3CCN(C(=O)C4CCCO4)CC3)nc2C1=O (stereo not given),161 to 162
22,CNC(=O)N(N)c1nnc(C(F)(F)F)s1,181 to 182
23,COC(=O)c1nc(-c2ccc(Cl)c(OC)c2F)cc(NC(C)=O)c1C,182 to 184
24,CCCCc1oc2ccccc2c1-c1ncc(-c2ccc3cc(OCC(=O)OC)ccc3c2)o1,149 to 151
25,O=S(=O)(NCc1ccnc2c(Cl)cccc12)c1ccc(-c2ccc(C(F)(F)F)cc2C(F)(F)F)cc1,184 to 185
